Data on two substances can be found in US8227610B2, “Compositions and methods for producing cellular labels for nuclear magnetic resonance techniques” (Carnegie Mellon University, priority 2007, dated 2012).

Data set [1] is described as follows: Critical micelle concentration estimated from light scattering intensity and particle size. Set-up: critical micell concentration (CMC): unit not given here. It counts as physicochemical. As for the experimental part:
FIG. 1. PFPE amide 1 emulsified with Pluronic™ F68 by sonication in 1×HBSS buffer. Emulsion was diluted in 1×HBSS and particle size measured by Dynamic Light Scattering (DLS). Data represents average of two independent measurements, (mean±SD). Critical micelle concentration (CMC) of PFPE amide 1 is 22.2 mg/mL, in presence of 21.6 mol % F68 and 1×HBSS buffer, was estimated from the intersection of the graph of two curves. Measurements performed on Zetasizer Nano (Malvern, UK).
Pluronic™ F68 was dissolved in aqueous buffer (HBSS, Hyclone) at 150 mg/mL. PFPE amide 1 was added at 152 mg/mL, and the mixture (250 μL) was placed in an 1.5 mL Eppendorf vial and sonicated (at 20 W and 20 kHz) at room temperature for 30 seconds. The emulsion was then diluted 1:3 in 1×HBSS and the particle size was measured by dynamic light scattering in Malvern Zetasizer Nano within 1 h. The molar ratio of PFPE amide 1 to F68 was 4.6:1. The polydispersity (PDI) was 0.12 to 0.19 and the average particle size 200 nm. The critical micellar concentrations (CMC) for the PFPE amide 1 and F68 was estimated by plotting the light scattering intensity and average diameter and looking for the curve intersection, as shown in FIG. 1.

Data set [2] has as its system dendritic cells. The experiment in a line: Cell number and viability of labeled dendritic cells by Cell Titer Glo. The format is cell-based, mouse. The following applies: after labeling. As for the experimental part: In the examples given below, cellular number was estimated using the commercial assay Cell Titer Glo (Promega). The assay implementation is easy and highly reproducible. A correlation curve was constructed for each labeling experiment at the day of experiment using the same cell culture. When testing the viability post-labeling, a small sample (50 μL) was taken from labeled cell suspension and mixed with Cell Titer Glo reagent in triplicate. Luminescence was measured within 10 minutes and the viable cell number was estimated from a linear correlation curve prepared on the day of experiment.
(§1) Labeling mouse dendritic cells was performed according to published methods with minor modifications^35. Dendritic cells were plated in 6-well plates, 1−2×10^6/well, and allowed to attach overnight. A PFPE diethyl amide 1/L35 emulsion was mixed with 0.3 mL of serum free media, incubated for 30 min at room temperature, and then added to the cells. After a 3 h incubation at 37° C., the cell labeling medium was removed and cells were washed three times with 1×PBS, detached by trypsinization, washed, and resuspended in 0.5 mL of complete media containing 10% FBS. A portion of the cell suspension (1/10) was used for cell number estimates by Cell Titer Glo. The cells were pelleted\ and resuspended in 0.1 mL of media for ^19F NMR measurements to assess the cell loading.

For data set [3], the system named is dendritic cells. The data set can be described thus: PFPE uptake in dendritic cells measured by 19F NMR. The format is cell-based, mouse. The following applies: 3 h incubation. As for the experimental part: as §1
When dendritic cells were used, the cell suspension (0.1 mL) was mixed with 100 ul of 1% TFA solution in glycerol as a calibrated ^19F reference. The two solutions were mixed well and transferred into a 5 mm NMR tube. Cell uptake was calculated from the relative areas under the peak at −91.5 ppm (PFPE main peak) and the TFA internal standard peak at −76 ppm. Cellular uptake (i.e., the parameter Fc) was calculated as the mean number of fluorine atoms per single viable cell.

In the case of “Perfluoropolyether diethyl amide [PFPE amide 1]”, the “critical micelle concentration (CMC)” value in data set [1] (1×HBSS) is 22.2 mg/mL.
As to “Perfluoropolyether tyramide [PFPE tyramide 6]”, the “cell viability / toxicity in DCs (in words)” value in data set [2] was “non-toxic over various doses”. For the same substance, the “critical micell concentration (CMC)” value in data set [1] (PFPE-tyramide 6/F68 24:1, thin film method, water) was 4.5. Moreover, the “uptake in DCs by 19F NMR (in words)” value in data set [3] is “comparable to the cell labeling experiments that were facilitated with protamine sulfate”.
